From US9809583B2 (priority 2014, dated 2017)
Read-outs that look alike come from different tables or passages of the source.

Legend:
androgen receptor (hAR) [1] = molecular target: T1, androgen receptor (hAR) (Homo sapiens (Human), UniProt P10275); test: Test of transcriptional activity (hAR / ARE-Luc dual-luciferase assay in CHO cells); format: cell-based; settings: EC50 [nM] (mean ± SE), CHO cells with hAR and ARE-Luc, 24 hours; 10 nM DHT = 100%
Outline: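 CHO cells cultured 24 h, then transfected with hAR and ARE-Luc plasmids. Transfected cells treated with 0.1˜10,000 nM compound for 24 h; transcriptional activity read by dual-luciferase reporter.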

androgen receptor (hAR) [2] = molecular target: T1, androgen receptor (hAR); test: biochemical; format: binding
Experimental: In order to examine binding ability of the agonists of the present invention to androgen receptors, the following in-vitro experiment was performed. African green monkey kidney fibroblast-like cell line, COS-7 (ATCC, #CRL-1651) was seeded in a 48-well plate at a density of 2.5×10^4 cells/well, and cultured for 24 hours. Then, a plasmid hAR-mixed medium was added thereto. […] Thereafter, the cells were lysed and the amount of [3H]MIB bound to the intracellular androgen receptors was measured using a radiation dosimeter.

castrated male rats = test: Efficacy test in castrated male rat (Hershberger assay); format: in vivo, SD (Sprague-Dawley) rat; settings: castrated male SD rats, oral once a day for 14 days
Experimental: SD (Sprague-Dawley) male rats (7-week-old) were castrated under ketamine/xylazine anesthesia, and 5 rats were randomly assigned to one group. From the next day, the agonists were dissolved in a vehicle solution and orally administered at a dose of 5 ml per kg once a day for 14 days. As the vehicle, DMSO, Co-solvent, and DW were prepared at a ratio of 4:80:16 (v/v/v), and Co-solvent was prepared by mixing PEG400, Ethanol, and Tween 80 at a ratio of 85:10:5 (v/v/v). 24 hours after last administration of the drug, their body weight was measured and killed. Thereafter, levator ani muscle, ventral prostate, and seminal vesicles were removed and weighed (Hershberger assay). The following Table 6 represents the result of the efficacy test in castrated male rats.

[3] = 1 nM [3H]MIB, hAR-transfected COS-7 cells, 2 hours, read-out: IC50 [nM] (mean ± SE)

T1 sequence (P10275 whole entry): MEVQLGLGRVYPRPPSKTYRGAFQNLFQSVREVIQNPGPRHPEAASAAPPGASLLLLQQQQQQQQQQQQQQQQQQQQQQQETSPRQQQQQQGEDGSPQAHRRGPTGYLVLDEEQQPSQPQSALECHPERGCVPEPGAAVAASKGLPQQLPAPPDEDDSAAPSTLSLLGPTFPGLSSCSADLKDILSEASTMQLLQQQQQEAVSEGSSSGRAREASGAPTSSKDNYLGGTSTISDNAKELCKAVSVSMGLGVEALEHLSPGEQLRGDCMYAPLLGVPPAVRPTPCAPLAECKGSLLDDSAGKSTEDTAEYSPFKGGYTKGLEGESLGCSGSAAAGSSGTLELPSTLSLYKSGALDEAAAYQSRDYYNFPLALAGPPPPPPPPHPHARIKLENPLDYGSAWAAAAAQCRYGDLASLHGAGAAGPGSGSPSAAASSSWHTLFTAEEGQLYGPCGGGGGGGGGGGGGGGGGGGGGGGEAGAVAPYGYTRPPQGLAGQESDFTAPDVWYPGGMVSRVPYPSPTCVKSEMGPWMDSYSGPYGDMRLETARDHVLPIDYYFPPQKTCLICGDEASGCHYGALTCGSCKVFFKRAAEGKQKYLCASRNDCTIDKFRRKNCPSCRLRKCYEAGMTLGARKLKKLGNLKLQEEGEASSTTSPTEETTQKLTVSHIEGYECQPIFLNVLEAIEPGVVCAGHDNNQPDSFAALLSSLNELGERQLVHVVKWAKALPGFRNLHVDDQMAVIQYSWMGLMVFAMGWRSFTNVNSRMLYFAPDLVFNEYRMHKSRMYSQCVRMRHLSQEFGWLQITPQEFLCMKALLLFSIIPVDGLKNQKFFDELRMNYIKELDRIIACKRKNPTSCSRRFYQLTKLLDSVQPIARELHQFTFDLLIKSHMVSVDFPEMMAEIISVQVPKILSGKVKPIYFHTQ

CC(=O)Nc1ccc(OC[C@@H]2CN(c3ccc(C#N)c(C(F)(F)F)c3)[C@@H](C(F)(F)F)O2)cc1 [Example 25, N-(4-(((2R,5S)-3-(4-cyano-3-(trifluoromethyl)phenyl)-2-(trifluoromethyl)oxazolidin-5-yl)methoxy)phenyl)acetamide]
EC50 (androgen receptor (hAR) [1]): 0.7 nM | IC50 (androgen receptor (hAR) [2]; [3]): 8.5 nM | levator ani muscle weight % relative to intact control group (castrated male rats; 0.01 mg/kg): 6.7 ± 1.6% | seminal vesicles weight % relative to intact control group (castrated male rats; 0.01 mg/kg): 0.9 ± 0.2% | ventral prostate weight % relative to intact control group (castrated male rats; 0.01 mg/kg): 1.8 ± 0.3% | levator ani muscle weight % relative to intact control group (castrated male rats; 0.03 mg/kg): 8.4 ± 1.5% | seminal vesicles weight % relative to intact control group (castrated male rats; 0.03 mg/kg): 0.7 ± 0.2% | ventral prostate weight % relative to intact control group (castrated male rats; 0.03 mg/kg): 1.0 ± 0.4% | levator ani muscle weight % relative to intact control group (castrated male rats; 0.1 mg/kg): 26.5 ± 5.8% | seminal vesicles weight % relative to intact control group (castrated male rats; 0.1 mg/kg): 0.9 ± 0.2% | ventral prostate weight % relative to intact control group (castrated male rats; 0.1 mg/kg): 3.2 ± 0.9% | levator ani muscle weight % relative to intact control group (castrated male rats; 0.3 mg/kg): 38.5 ± 4.8% | seminal vesicles weight % relative to intact control group (castrated male rats; 0.3 mg/kg): 3.4 ± 0.4% | ventral prostate weight % relative to intact control group (castrated male rats; 0.3 mg/kg): 4.8 ± 1.6% | levator ani muscle weight % relative to intact control group (castrated male rats; 1 mg/kg): 61.1 ± 6.3% | seminal vesicles weight % relative to intact control group (castrated male rats; 1 mg/kg): 4.7 ± 1.2% | ventral prostate weight % relative to intact control group (castrated male rats; 1 mg/kg): 10.9 ± 3.4% | levator ani muscle weight % relative to intact control group (castrated male rats; 3 mg/kg): 79.8 ± 6.7% | seminal vesicles weight % relative to intact control group (castrated male rats; 3 mg/kg): 8.7 ± 1.6% | ventral prostate weight % relative to intact control group (castrated male rats; 3 mg/kg): 12.7 ± 2.5%

N#Cc1ccc(OC[C@@H]2CN(c3ccc(C#N)c(C(F)(F)F)c3)[C@@H](C(F)(F)F)O2)cc1 [Example 19, 4-((2R,5S)-5-((4-cyanophenoxy)methyl)-2-(trifluoromethyl)oxazolidin-3-yl)-2-(trifluoromethyl)benzonitrile]
EC50 (androgen receptor (hAR) [1]): 1 nM | IC50 (androgen receptor (hAR) [2]; [3]): 7.6 nM | levator ani muscle weight % relative to intact control group (castrated male rats; 0.3 mg/kg): 7.2 ± 4.3% | seminal vesicles weight % relative to intact control group (castrated male rats; 0.3 mg/kg): 4.8 ± 1.3% | ventral prostate weight % relative to intact control group (castrated male rats; 0.3 mg/kg): 1.7 ± 0.6% | levator ani muscle weight % relative to intact control group (castrated male rats; 1 mg/kg): 45.9 ± 5.8% | seminal vesicles weight % relative to intact control group (castrated male rats; 1 mg/kg): 78.2 ± .1% | ventral prostate weight % relative to intact control group (castrated male rats; 1 mg/kg): 10.2 ± 3.9% | levator ani muscle weight % relative to intact control group (castrated male rats; 3 mg/kg): 70.6 ± 6.6% | seminal vesicles weight % relative to intact control group (castrated male rats; 3 mg/kg): 17.3 ± 5.6% | ventral prostate weight % relative to intact control group (castrated male rats; 3 mg/kg): 11.4 ± 3.0% | levator ani muscle weight % relative to intact control group (castrated male rats; 10 mg/kg): 63.9 ± 4.8% | seminal vesicles weight % relative to intact control group (castrated male rats; 10 mg/kg): 22.9 ± 4.3% | ventral prostate weight % relative to intact control group (castrated male rats; 10 mg/kg): 14.4 ± 2.7% | levator ani muscle weight % relative to intact control group (castrated male rats; 30 mg/kg): 78.4 ± 11.0% | seminal vesicles weight % relative to intact control group (castrated male rats; 30 mg/kg): 33.4 ± 2.0% | ventral prostate weight % relative to intact control group (castrated male rats; 30 mg/kg): 18.3 ± 4.5% | levator ani muscle weight % relative to intact control group (castrated male rats; 100 mg/kg): 68.3 ± 7.3% | seminal vesicles weight % relative to intact control group (castrated male rats; 100 mg/kg): 36.4 ± 9.2% | ventral prostate weight % relative to intact control group (castrated male rats; 100 mg/kg): 18.0 ± 5.2%

CN(C)C(=O)c1ccc(OC[C@@H]2CN(c3ccc(C#N)c(C(F)(F)F)c3)[C@@H](C(F)(F)F)O2)cc1 [Example 34, 4-(((2R,5S)-3-(4-cyano-3-(trifluoromethyl)phenyl)-2-(trifluoromethyl)oxazolidin-5-yl)methoxy)-N,N-dimethylbenzamide]
EC50 (androgen receptor (hAR) [1]): 111 nM | IC50 (androgen receptor (hAR) [2]): 24.1 nM

N#Cc1ccc(N2C[C@@H](COc3ccc(Cl)cc3)O[C@@H]2C(F)(F)F)cc1C(F)(F)F [Example 56, 4-((2R,5S)-5-((4-chlorophenoxy)methyl)-2-(trifluoromethyl)oxazolidin-3-yl)-2-(trifluoromethyl)benzonitrile]
EC50 (androgen receptor (hAR) [1]): 75.1 nM | IC50 (androgen receptor (hAR) [2]; [3]): 75.1 nM

N#Cc1ccc(OC[C@@H]2CN(c3ccc(C#N)c(C(F)(F)F)c3)[C@@H](C(F)(F)F)O2)c(F)c1 [Example 11, 4-((2R,5S)-5-((4-cyano-2-fluorophenoxy)methyl)-2-(trifluoromethyl)oxazolidin-3-yl)-2-(trifluoromethyl)benzonitrile]
EC50 (androgen receptor (hAR) [1]): 4.5 nM | IC50 (androgen receptor (hAR) [2]; [3]): 10.5 nM

N#Cc1ccc(N2C[C@@H](COc3ccc([N+](=O)[O-])cc3F)O[C@@H]2C(F)(F)F)cc1C(F)(F)F [Example 33, 4-((2R,5S)-5-((2-fluoro-4-nitrophenoxy)methyl)-2-(trifluoromethyl)oxazolidin-3-yl)-2-(trifluoromethyl)benzonitrile]
EC50 (androgen receptor (hAR) [1]): 10.7 nM | IC50 (androgen receptor (hAR) [2]; [3]): 10.4 nM

N#Cc1ccc(N2C[C@@H](COc3ccc([N+](=O)[O-])c(F)c3)O[C@@H]2C(F)(F)F)cc1C(F)(F)F [Example 31]
EC50 (androgen receptor (hAR) [1]): 17.7 nM | IC50 (androgen receptor (hAR) [2]; [3]): 14.1 nM
